Assay results from patent US20230167155A1, “COMPOSITIONS AND METHODS” (KING'S COLLEGE LONDON, priority 2020, published 2023).
[ ]: non-standard residue; d: D form. Cha = N[C@@H](CC1CCCCC1)C(=O)O; Mpa = O=C(O)CCS

Assays:
[1] = system: C57BL/6 mice; assay: Delayed type hypersensitivity, contact sensitivity to oxazolone (ear swelling); format: in vivo, mouse; conditions: 10 microM/g
[2] = system: ABCA1; assay: ABCA1 expression of macrophages incubated with thrombin; format: cell-based; conditions: titrated in during incubation of macrophages with thrombin
Source text: In more detail, mechanistic insights: direct effect on monocyte/macrophage phenotype through SOCS3. To explain how 3-MP inhibits the enhanced sensitivity to IFNγ induced by thrombin.

[3] = molecular target: T1, PAR1 (Homo sapiens, UniProt P25116); conditions: Kawabata et al 1999, page 365; cited from earlier work
T1 sequence (P25116 22-425): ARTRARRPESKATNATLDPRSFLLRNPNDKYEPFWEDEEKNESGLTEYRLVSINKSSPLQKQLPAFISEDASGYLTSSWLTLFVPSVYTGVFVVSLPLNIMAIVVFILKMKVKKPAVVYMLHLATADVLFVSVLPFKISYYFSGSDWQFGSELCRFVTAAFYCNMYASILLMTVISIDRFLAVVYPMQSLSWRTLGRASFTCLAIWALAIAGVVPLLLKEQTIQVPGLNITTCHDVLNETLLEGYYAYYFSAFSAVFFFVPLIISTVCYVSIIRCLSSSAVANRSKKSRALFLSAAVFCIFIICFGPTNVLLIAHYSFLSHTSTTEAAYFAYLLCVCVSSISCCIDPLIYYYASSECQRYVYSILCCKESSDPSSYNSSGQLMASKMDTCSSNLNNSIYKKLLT

[4] = molecular target: T2, PAR2 (Homo sapiens, UniProt P55085); conditions: Kawabata et al 1999, page 365; cited from earlier work
T2 sequence (P55085 26-397): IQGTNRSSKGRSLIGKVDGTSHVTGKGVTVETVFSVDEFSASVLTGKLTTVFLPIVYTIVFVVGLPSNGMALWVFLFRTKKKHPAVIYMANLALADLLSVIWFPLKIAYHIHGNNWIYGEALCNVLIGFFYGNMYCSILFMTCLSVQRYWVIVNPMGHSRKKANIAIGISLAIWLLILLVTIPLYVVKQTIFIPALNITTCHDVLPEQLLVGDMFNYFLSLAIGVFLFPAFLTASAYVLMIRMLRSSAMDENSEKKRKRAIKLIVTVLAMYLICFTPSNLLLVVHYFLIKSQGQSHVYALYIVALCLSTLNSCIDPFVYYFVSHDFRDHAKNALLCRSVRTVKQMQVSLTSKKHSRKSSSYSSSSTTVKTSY

[5] = system: murine SMC; assay: Thrombin-induced secretion of chemokines by SMC with PAR reagents; format: cell-based, mouse; set-up: thrombin-mediated MIF (and CCL-2) secretion / thrombin-mediated CX3CL1 secretion: dose or concentration left out as unconfirmed
Experimental: In more detail, Mechanistic insights—monocyte recruitment: In vitro secretion of chemokines by PAR-1 and PAR-2 agonists. Mouse primary smooth muscle cells (SMCs) or endothelial cells (EC) at a density of 1×10^6 cells/well of a 24-well plate were serum-starved for 24 hours before addition of FLLRN (PAR-1 […], 10 μM), 2-Furoyl-LIGRLO-Amide (PAR-2 agonist, 10 μM) or 3-MP (3-mercaptopropionyl-F-Cha-Cha-RKPNDK 10 μM) for 12 hours, […] , before a final 48 hours incubation in 2% FCS DMEM. Supernatants of stimulated cells were collected to measure MIF, CCL2, CCL5 and CX3CL1 using ELISA, following manufacturer's protocol.
In more detail, mechanistic insights—monocyte recruitment: In vitro secretion of chemokines by thrombin—differential impact of PAR-1 antagonist and 3-mercaptopropionyl-F-Cha-Cha-RKPNDK. Secretion of chemokines from murine SMC after stimulation with thrombin alone (nil), or in presence of a pure PAR-1 antagonist, or 3-MP*.
(§1) FIG. 22: Secretion of MIF and CX3CL1 by SMC after 12 hour stimulation with either a pure PAR-1 agonist, pure PAR-2 agonist, or by 3-mercaptoproprionyl(MP)—F-Cha-Cha-RKPNDK amide, followed by 48 hour culture period. All used at […]. Patterns of secretion of CCL-2 resemble those of MIF, whereas secretion of CCL5 resembles CX3CL1.
Chemokines measured 48 hours later. Secretion of CCL-2 resembles that of MIF, whereas secretion of CCL5 resembles CX3CL1.

[6] = system: Mouse primary smooth muscle cells (SMCs) or endothelial cells (EC); assay: In vitro secretion of chemokines by SMC/EC after PAR reagents; format: cell-based; set-up: secretion of MIF (and CCL-2) compared with PAR-1 agonists / secretion of CX3CL1 (and CCL5) compared with a PAR-1 agonist: dose or concentration left out as unconfirmed
Experimental: In more detail, Mechanistic insights—monocyte recruitment: In vitro secretion of chemokines by PAR-1 and PAR-2 agonists. Mouse primary smooth muscle cells (SMCs) or endothelial cells (EC) at a density of 1×10^6 cells/well of a 24-well plate were serum-starved for 24 hours before addition of FLLRN (PAR-1 […], 10 μM), 2-Furoyl-LIGRLO-Amide (PAR-2 agonist, 10 μM) or 3-MP (3-mercaptopropionyl-F-Cha-Cha-RKPNDK 10 μM) for 12 hours, following which thrombin (10 nM) was added for 1 hour, before a final 48 hours incubation in 2% FCS DMEM. Supernatants of stimulated cells were collected to measure MIF, CCL2, CCL5 and CX3CL1 using ELISA, following manufacturer's protocol.
as §1

[7] = system: macrophages; assay: Sensitivity of macrophages to IFNγ (iNOS expression, flow cytometry); format: cell-based; conditions: 100 microM
Experimental: In more detail, mechanistic insights: direct effect on monocyte/macrophage phenotype. Sensitivity of macrophages to IFNγ, as assessed by the proportion that express iNOS after stimulation.
The enhanced sensitivity to IFNγ induced by thrombin is inhibited by a PAR-1 antagonist—this is via expression of ABCA1 and membrane lipid rafts. […] BMM purified cells cultured in MCSF for 5 days. Cells then removed for 24 hours and incubated with thrombin (50 units) (if an antagonist or 3-mercaptopropionyl-F-Cha-Cha-RKPNDK was used cells were incubated for 2 hours with the antagonist or 3MP prior to thrombin stimulation to allow time for antagonist to dock with PAR). Cells then had media replaced with thrombin+ PAR reagent and IFN gamma at the dose described. For the PAR2 experiments it was at this point that PAR2 was added. Cells were then incubated for 24 further hours and then analysed by flow cytometry for iNOS. Pure PAR-1 antagonist (αagonist)=FLLRN; Pure PAR-2 agonist=2-Furoyl-LIGRLO-amide; 3-MP=3-mercaptopropionyl-F-Cha-Cha-RKPNDK; All used at 100 microM. Thrombin used at 50 iu

[8] = system: SOCS3; assay: SOCS3 expression of macrophages; format: cell-based
Source text: This is a well-described inhibitor of IFNγ signalling. In the right graph, the thrombin-induced sensitivity to IFNγ, as assessed by change in iNOS expression, is shown.

[9] = system: C57BL/6 mice; assay: Delayed type hypersensitivity, contact sensitivity to oxazolone (ear swelling); format: in vivo, mouse; conditions: WT mice, reagent at second exposure to oxazolone
Experimental: C57BL/6 mice were topically sensitised with oxazolone on the shaved abdomen on day 0. Treatment with either saline, PTL060 (10 mg/g), equimolar PTL0GC-1 or equimolar *3-MP was given on day 3 and day 5, the last immediately prior to re-challenge with oxazolone onto the right ear. The left ear was treated with vehicle alone. On day 6, the difference in swelling of the right and left ears was measured and is presented as D mean ear thickness.
This example uses a model of contact hypersensitivity. Here, mice are challenged on the abdomen with the contact sensitizer oxazolone, before a re-challenge […] on both sides of the ear with oxazolone (on the right) or vehicle alone (on the left).
Swelling of the ears, measured with a micrometer, reflects the influx of monocytes/macrophages and T cells in a typical delayed-type hypersensitivity (DTH) response.
FIG. 19: Model of DTH involving contact sensitivity to oxazolone. WT mice were administered a PAR-1 agonist or antagonist at the point of second exposure to oxazolone, before ear thickness was assessed 24 hours later, and mice sacrificed for immunohistological analysis of cross sections of the affected ears, to determine the proportional area occupied by CD68+ cells (macrophages). *p<0.05. **p<0.01. ***p<0.001

[10] = SMC, 12 hour stimulation, 48 hour culture

3-mercaptopropionyl-Phe-Cha-Cha-Arg-Lys-Pro-Asn-Asp-Lys-NH2 ([Mpa]F[Cha][Cha]RKPNDK-NH2; SMILES N=C(N)NCCC[C@H](NC(=O)[C@H](CC1CCCCC1)NC(=O)[C@H](CC1CCCCC1)NC(=O)[C@H](Cc1ccccc1)NC(=O)CCS)C(=O)N[C@@H](CCCCN)C(=O)N1CCC[C@H]1C(=O)N[C@@H](CC(N)=O)C(=O)N[C@@H](CC(=O)O)C(=O)N[C@@H](CCCCN)C(N)=O) [3-MP, parental untailed compound of PTL032 and PTL0GC-1]
monocyte recruitment and phenotype in DTH [1]: reduced monocyte recruitment with switched phenotype
thrombin-induced ABCA1 expression [2]: inhibits thrombin-induced ABCA1 expression
activity at PAR1 [3]: antagonist
activity at PAR2 [4]: agonist
thrombin-mediated CX3CL1 secretion ([5]; SMC, 12 hour): maintained
thrombin-mediated MIF (and CCL-2) secretion ([5]; SMC, 12 hour): inhibited equally
thrombin-induced secretion of CX3CL1 and CCL5 reduced by ([5]; murine SMC, 10 μM, thrombin 10 nM): 0-10%
behaviour in chemokine secretion assay ([6]; 10 μM, 12 hours, MIF, CCL2, CCL5, CX3CL1 by ELISA): behaves as a pure PAR-2 agonist
secretion of CX3CL1 (and CCL5) compared with a PAR-1 agonist [6, 10]: stimulated better
secretion of MIF (and CCL-2) compared with PAR-1 agonists [6, 10]: less so
background response of control macrophages to IFNγ [7]: inhibits the background response of control macrophages to IFNγ
enhanced sensitivity of macrophages to IFNγ induced by thrombin (iNOS) ([7]; thrombin 50 iu): more potent than a pure PAR-1 antagonist
SOCS3 expression [8]: induces SOCS3 expression
infiltration by CD68+ cells compared with both reagents together [9]: inhibits CD68 infiltration better than when both reagents are administered together
ear swelling ([9]; ear thickness 24 hours later): inhibits ear swelling and infiltration by CD68+ cells better than when either a pure PAR-1 antagonist or PAR-2 agonist are administered separately
